The source of these data is US20260374766A1, “METHODS FOR TREATING CANCER” (Antares Therapeutics, Inc., priority 2022, published 2026).

SMILES strings stand for the structures. Read-outs that look alike come from different tables or passages of the source.

In one experiment the test system is H1299 p53 Y220C. The experiment is described as follows: Cell Proliferation Assay (CellTiter-Glo, CTG), H1299 p53 Y220C (NClH1299-inducible p53 Y220C). The experiment is classed as cell-based. The note with it: Homo sapiens, NCI-H1299, 120 h, NClH1299-inducible p53 Y220C cells, 5 days. In short, it runs like this:
(§1)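 NClH1299 lines stably transduced with Tet-inducible p53 Y220C or R273H, plus NUGC3, were treated with compound for 5 days at 250-500 cells/well. IC50 derived from CellTiter-Glo luminescent signal after 10 min room-temperature incubation.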

The next experiment concerns H1299 p53 R273H. Kind of experiment: Cell Proliferation Assay (CellTiter-Glo, CTG), H1299 p53 R273H (NClH1299-inducible p53 R273H). The note with it: Homo sapiens, NCI-H1299, 120 h, NClH1299-inducible p53 R273H cells, 5 days. The experiment is classed as cell-based. In short, it runs like this:
as §1

The target of experiment [1] is T1, p53 Y220C mutant protein (amino acid residues 94-293) (Homo sapiens, UniProt P04637, Y220C).
T1 construct: p53 Y220C mutant protein (amino acid residues 94-293)
The experiment is described as follows: Surface Plasmon Resonance (SPR) assay, Kd_kinetic. The experiment is classed as binding. As to conditions: read-out: SPR P53 Y220C KD kinetic. In short, it runs like this: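 Temperature held at 16 or 20 °C during Biacore 8K runs. Buffer: 50 mM Tris, pH 7.5, 100 mM NaCl, 1 mM DTT, 0.01% Brij35, 0.05% Tween-20, 1% DMSO.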

Experiment [2] deals with T1, p53 Y220C mutant protein (amino acid residues 94-293). The experiment is described as follows: Thermal Shift Assay (TSA), dTM. The experiment is classed as binding. The note with it: read-out: TSA P53 Y220C dTM; for ΔTm at 10 µM: 10 uM compound. In short, it runs like this:
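5 μM p53 Y220C (residues 94-293) incubated 3 h at 20 °C with 10 μM or 100 μM compound in 20 mM HEPES pH 7.4, 100 mM NaCl, 0.01% Pluronic F-127, 1% DMSO plus Sypro Orange. Melt from 30 to 50 °C at 0.03 °C/s; TM from Boltzmann two-state fit.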

The next experiment concerns the target p53 Y220C (Homo sapiens, UniProt P04637, Y220C). The experiment is described as follows: Luciferase Reporter Assay (Luc), p53 response element, NClH1299 cells with inducible p53 Y220C. The experiment is classed as cell-based. The note with it: 6 hour; for AC50: read-out: Luc P53 Y220C AC50. In a few lines: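 H1299 cells induced with 0.5 ug/mL doxycycline for 24 hours, then exposed to compound for 6 hours. p53 response-element luciferase read by One-Glo luminescence after 5 min shaking at room temperature.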

The subject of another experiment is NUGC3 p53 Y220C. The experiment is described as follows: Cell Proliferation Assay (CellTiter-Glo, CTG), NUGC3 p53 Y220C. The experiment is classed as cell-based. As to conditions: Homo sapiens, NUGC-3, 120 h, NUGC3 cells, 5 days. In a few lines: as §1
The mark [3] stands for this setting: luciferase reporter, NClH1299 inducible p53 Y220C.

As to `CNC(=O)c1ccc(NCC#Cc2cc3c(N[C@@H]4CCN(C5COC5)C[C@@H]4F)nccn3c2SC(F)(F)F)c(OC)c1` [Example 350], the IC50 in the experiment with H1299 p53 Y220C (CellTiter-Glo) was < 750 nM; in the experiment with H1299 p53 R273H (CellTiter-Glo), ≥ 10000 nM; with NUGC3 p53 Y220C (CellTiter-Glo), < 750 nM. In addition, in experiment [1], the dissociation constant Kd was < 10 nM. Further, in experiment [2] (p53 Y220C), the ΔTm at 10 µM was ≥ 10 °C. The concentration at half-maximal activity (AC50) on p53 Y220C (setting [3]) was < 750 nM. Moreover, the Emax at p53 Y220C (setting [3]) is > 90%.

For the compound `CNC(=O)c1ccc(OC)c(NCC#Cc2cc3c(N[C@@H]4CCN(C5COC5)C[C@@H]4F)nccn3c2SC(F)(F)F)c1` [Example 351], the IC50 in the experiment with H1299 p53 Y220C (CellTiter-Glo) is < 750 nM; in the experiment with H1299 p53 R273H (CellTiter-Glo), ≥ 10000 nM; in the experiment with NUGC3 p53 Y220C (CellTiter-Glo), < 750 nM. For the same compound, the Kd in experiment [1] (SPR, p53 Y220C) is < 10 nM. The ΔTm at 10 µM in experiment [2] (p53 Y220C) is ≥ 10 °C. Further, the concentration at half-maximal activity (AC50) on p53 Y220C (setting [3]) is < 750 nM. Besides, the maximal effect (Emax) at p53 Y220C (setting [3]) was > 90%.

For `CNC(=O)CN1CC[C@@H](Nc2nccn3c(SC(F)(F)F)c(C#CCNc4cc(C(=O)NC)ccc4OC)cc23)[C@@H](F)C1` [Example 352], the concentration for half-maximal inhibition (IC50) was < 750 nM with H1299 p53 Y220C (CellTiter-Glo), ≥ 10000 nM in the experiment with H1299 p53 R273H (CellTiter-Glo) and < 750 nM in the experiment with NUGC3 p53 Y220C (CellTiter-Glo). Also, the equilibrium dissociation constant (Kd) in experiment [1] (SPR, p53 Y220C) was < 10 nM. Also, in experiment [2] (p53 Y220C), the ΔTm at 10 µM is ≥ 10 °C. Also, the AC50 on p53 Y220C (setting [3]) is < 750 nM. Also, on p53 Y220C (setting [3]), the Emax is > 90%.

`CNC(=O)c1ccc(OC)c(NCC#Cc2cc3c(N[C@@H]4CCN(CC#N)C[C@@H]4F)nccn3c2SC(F)(F)F)c1` [Example 353]: the 50% inhibitory concentration (IC50) with H1299 p53 Y220C (CellTiter-Glo) was < 750 nM; in the experiment on H1299 p53 R273H (CellTiter-Glo), ≥ 10000 nM; in the experiment on NUGC3 p53 Y220C (CellTiter-Glo) it was < 750 nM. Moreover, in experiment [1] (SPR, p53 Y220C), the Kd was < 10 nM. Moreover, the ΔTm at 10 µM in experiment [2] (p53 Y220C) is ≥ 10 °C. In addition, the concentration at half-maximal activity (AC50) at p53 Y220C (setting [3]) is < 750 nM. Besides, the Emax at p53 Y220C (setting [3]) was > 90%.

For `CNC(=O)c1ccc(NCC#Cc2cc3c(N[C@@H]4CCNC[C@@H]4F)cccn3c2SC(F)(F)F)c(OC)c1` [Example 354], the IC50 with H1299 p53 Y220C (CellTiter-Glo) is < 750 nM; with H1299 p53 R273H (CellTiter-Glo) it was 5000 to 8000 nM; with NUGC3 p53 Y220C (CellTiter-Glo) it was < 750 nM. Moreover, in experiment [1] (SPR, p53 Y220C), the Kd is < 10 nM. For the same compound, the ΔTm at 10 µM in experiment [2] (p53 Y220C) was ≥ 10 °C. The AC50 at p53 Y220C (setting [3]) is < 750 nM. For the same compound, the maximum response (Emax) at p53 Y220C (setting [3]) is > 90%.

`CNC(=O)c1ccc(NCC#Cc2cc3c(N[C@@H]4CCN(C)C[C@@H]4F)cccn3c2SC(F)(F)F)cc1` [Example 357]: the IC50 in the experiment with H1299 p53 Y220C (CellTiter-Glo) was < 750 nM; in the experiment on H1299 p53 R273H (CellTiter-Glo), 5000 to 8000 nM; in the experiment with NUGC3 p53 Y220C (CellTiter-Glo), < 750 nM. In addition, the equilibrium dissociation constant (Kd) in experiment [1] (SPR, p53 Y220C) was < 10 nM. For the same compound, the ΔTm at 10 µM in experiment [2] (p53 Y220C) was ≥ 10 °C. The half-maximal activity concentration (AC50) at p53 Y220C (setting [3]) was < 750 nM. On p53 Y220C (setting [3]), the Emax was > 90%.

`COc1ccc(C(=O)NC[C@H](C)O)cc1NCC#Cc1cc2c(N[C@@H]3CCN(C)C[C@@H]3F)nccn2c1SC(F)(F)F` [Example 358]: the half-inhibitory concentration (IC50) with H1299 p53 Y220C (CellTiter-Glo) was < 750 nM; in the experiment with H1299 p53 R273H (CellTiter-Glo), ≥ 10000 nM; in the experiment with NUGC3 p53 Y220C (CellTiter-Glo) it was < 750 nM. Also, in experiment [1] (SPR, p53 Y220C), the equilibrium dissociation constant (Kd) was < 10 nM. For the same compound, the ΔTm at 10 µM in experiment [2] (p53 Y220C) is ≥ 10 °C. In addition, the concentration at half-maximal activity (AC50) on p53 Y220C (setting [3]) is < 750 nM. For the same compound, the maximal response (Emax) at p53 Y220C (setting [3]) was > 90%.

With `COc1ccc(C(=O)NC[C@@H](C)O)cc1NCC#Cc1cc2c(N[C@@H]3CCN(C)C[C@@H]3F)nccn2c1SC(F)(F)F` [Example 359], the IC50 is < 750 nM with H1299 p53 Y220C (CellTiter-Glo), ≥ 10000 nM in the experiment on H1299 p53 R273H (CellTiter-Glo) and < 750 nM in the experiment with NUGC3 p53 Y220C (CellTiter-Glo). Moreover, the equilibrium dissociation constant (Kd) in experiment [1] (SPR, p53 Y220C) was < 10 nM. Besides, the ΔTm at 10 µM in experiment [2] (p53 Y220C) is ≥ 10 °C. The AC50 on p53 Y220C (setting [3]) was < 750 nM. In addition, the maximal response (Emax) on p53 Y220C (setting [3]) is > 90%.

Turning to `CN1CC[C@@H](Nc2cccn3c(SC(F)(F)F)c(-c4noc(CNC(=O)C5CC5)n4)nc23)[C@@H](F)C1` [Example 458], the figures for the 50% inhibitory concentration (IC50) with H1299 p53 Y220C, in the experiment on H1299 p53 R273H and with NUGC3 p53 Y220C were > 3000 nM, ≥ 10000 nM and > 3000 nM, respectively. The Kd in experiment [1] (SPR, p53 Y220C) lay in the range of 10 to 100 nM. In experiment [2], the ΔTm at 10 µM is 5 to 10 °C. Besides, in experiment [2] (100 uM compound), the ΔTm at 100 µM lay within 5 to 10 °C. Moreover, on p53 Y220C (NClH1299 cells with inducible p53 Y220C), the half-maximal activity concentration (AC50) is > 3000 nM. Further, the Emax on p53 Y220C (NClH1299 cells with inducible p53 Y220C, 10 uM tool compound as positive control) was < 70%.
